Assays:
[1] = system: RXF 393 (renal cancer cell line); test: NCI-60 single-dose assay; assay type: cell-based, human; settings: Homo sapiens, RXF 393, read-out: growth inhibition (GI%) and cytotoxicity (negative values)
Procedure, shortened: (§1)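 One-dose NCI-60 screen measuring cytotoxic activity; compounds meeting pre-set threshold inhibition criteria in a minimum number of lines advanced to the five-dose assay.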

[2] = system: HCC-2998 (colon cancer cell line); test: NCI-60 single-dose assay; assay type: cell-based, human; settings: human
Procedure, shortened: as §1

[3] = system: M14 (melanoma cell line); test: NCI-60 single-dose assay; assay type: cell-based, human; settings: human
Procedure, shortened: as §1

[4] = system: MCF-7 (breast cancer cell line); test: NCI-60 single-dose assay; assay type: cell-based, human; settings: Homo sapiens, MCF7, read-out: growth inhibition (GI%) and cytotoxicity (negative values), MCF-7, 10^−5 M
Procedure, shortened: as §1

[5] = system: KM12 (colon cancer cell line); test: NCI-60 single-dose assay; assay type: cell-based, human; settings: Homo sapiens, KM12, read-out: growth inhibition (GI%) and cytotoxicity (negative values)
Procedure, shortened: as §1

[6] = system: SW-620 (colon cancer cell line); test: NCI-60 single-dose assay; assay type: cell-based, human; settings: human
Procedure, shortened: as §1

[7] = system: SK-MEL-28 (melanoma cell line); test: NCI-60 single-dose assay; assay type: cell-based, human; settings: human
Procedure, shortened: as §1

[8] = system: SK-MEL-5 (melanoma cell line); test: NCI-60 single-dose assay; assay type: cell-based, human; settings: human
Procedure, shortened: as §1

[9] = system: EKVX (non-small cell lung cancer cell line); test: NCI-60 single-dose assay; assay type: cell-based, human; settings: Homo sapiens, read-out: growth inhibition (GI%) and cytotoxicity (negative values)
Procedure, shortened: as §1

[10] = system: RPMI-8226 (leukemia cell line); test: NCI-60 single-dose assay; assay type: cell-based, human; settings: Homo sapiens, RPMI-8226, read-out: growth inhibition (GI%) and cytotoxicity (negative values)
Procedure, shortened: as §1

[11] = system: HT29 (colon cancer cell line); test: NCI-60 single-dose assay; assay type: cell-based, human; settings: human
Procedure, shortened: as §1

[12] = system: CAKI-1 (renal cancer cell line); test: NCI-60 single-dose assay; assay type: cell-based, human; settings: human
Procedure, shortened: as §1

[13] = system: NCI-H23 (non-small cell lung cancer cell line); test: NCI-60 single-dose assay; assay type: cell-based, human; settings: Homo sapiens, NCI-H23, read-out: growth inhibition (GI%) and cytotoxicity (negative values)
Procedure, shortened: as §1

[14] = system: SK-MEL-2 (melanoma cell line); test: NCI-60 single-dose assay; assay type: cell-based, human; settings: Homo sapiens, SK-MEL-2, read-out: growth inhibition (GI%) and cytotoxicity (negative values)
Procedure, shortened: as §1

[15] = system: MALME-3M (melanoma cell line); test: NCI-60 single-dose assay; assay type: cell-based, human; settings: human
Procedure, shortened: as §1

[16] = system: SN12C (renal cancer cell line); test: NCI-60 single-dose assay; assay type: cell-based, human; settings: Homo sapiens, read-out: growth inhibition (GI%) and cytotoxicity (negative values)
Procedure, shortened: as §1

[17] = system: HL-60(TB) (leukemia cell line); test: NCI-60 single-dose assay; assay type: cell-based, human; settings: human
[18] = system: RXF 393 (renal cancer cells); test: NCI-60 five-dose assay; assay type: cell-based, human; settings: Homo sapiens, five-dose screen
[19] = system: KM12 (colon cancer cell line); test: NCI-60 five-dose assay; assay type: cell-based, human; settings: Homo sapiens, five doses (10^−4–10^−8 M), read-out: Growth inhibition 50 (GI50)
[20] = in vitro; settings: dog
[21] = system: UACC-257 (melanoma cell line); test: NCI-60 five-dose assay
[22] = system: MDA-MB-468 (breast cancer); test: NCI-60 five-dose assay; assay type: cell-based, human; settings: Homo sapiens, five-dose screen
[23] = system: COLO 205 (colon cancer cell line); test: NCI-60 five-dose assay; assay type: cell-based, human; settings: Homo sapiens, five doses (10^−4–10^−8 M), read-out: Growth inhibition 50 (GI50)
[24] = system: LOX IMVI (melanoma cell line); test: NCI-60 five-dose assay
[25] = system: CCRF-CEM (leukemia cell line); test: NCI-60 five-dose assay; assay type: cell-based, human; settings: Homo sapiens, five doses (10^−4–10^−8 M), read-out: Growth inhibition 50 (GI50)
[26] = system: HCT-116 (colon cancer cell line); test: NCI-60 five-dose assay; assay type: cell-based, human; settings: Homo sapiens, five doses (10^−4–10^−8 M), read-out: Growth inhibition 50 (GI50)
[27] = system: HCT-15 (colon cancer cell line); test: NCI-60 five-dose assay; assay type: cell-based, human; settings: Homo sapiens, five doses (10^−4–10^−8 M), read-out: Growth inhibition 50 (GI50)
[28] = system: SW-620 (colon cancer cell line); test: NCI-60 five-dose assay; assay type: cell-based, human; settings: Homo sapiens, SW-620, read-out: Growth inhibition 50 (GI50)
[29] = Cytotoxicity on uninfected Huh-7 cells (WST-8, crystal violet); settings: human, uninfected Huh-7 cells
Description: The toxicity of the compounds at the same concentration was tested on the same cells in parallel.
Cytotoxic effects were evaluated on uninfected cells using the WST-8 assay (Orangu, Cell Guidance Systems, Cambridge, UK) and the crystal violet assay [23]. […] Huh-7, MDCK, and Vero TMPRSS cells were seeded at 1 × 10^4, 1.5 × 10^4, and 1.2 × 10^4 cells/well, respectively, and incubated for 48 h (Huh-7 and MDCK) or 24 h (VERO TMPRSS), following conditions matching those of the corresponding antiviral assays in terms of timing and culture medium. At the end of incubation, the medium was replaced with a 10% WST-8 solution in DMEM and incubated for 1 h at 37 °C. Optical density (OD) was then measured at 450 nm using a Varioskan LUX plate reader (ThermoFisher Scientific, Milano, Italy). Subsequently, cells were fixed with 4% buffered formalin solution (Merck®, Darmstadt, Germany), stained with 1% crystal violet (Merck®, Darmstadt, Germany), and the dye was solubilized in 30% acetic acid for 30 min under shaking. OD was then measured at 595 nm as an additional readout of cell viability. The percentage of viability at each concentration was calculated using the formula:% viability = 100 × (ODcompound/ODuntreated control) where ODcompound and ODuntreated are the OD of the cells treated with compound or DMSO, respectively.
The CC50 value was determined by nonlinear regression analysis on GraphPad Prism 7 (San Diego, CA, USA).

[30] = system: HT29 (colon cancer cell line); test: NCI-60 five-dose assay; assay type: cell-based, human; settings: Homo sapiens, HT-29, five doses (10^−4–10^−8 M), read-out: Growth inhibition 50 (GI50)
[31] = system: MALME-3M (melanoma cell line); test: NCI-60 five-dose assay
[32] = system: SARS-CoV-2 VR PV10734 (strain Milano); test: microbe, parasite or virus in culture; assay type: cell-based; settings: Severe acute respiratory syndrome coronavirus 2; preliminary screening (50, 5, 0.5 μM), Vero TMPRSS; read-out: SARS‐CoV‐2/Vero TMPRSS EC50
[33] = system: SK-MEL-2 (melanoma cell line); test: NCI-60 five-dose assay
[34] = system: IAV strain A/PR/8/34 (H1N1); settings: preliminary screening

## CCN1CCC[C@H]1CNC(=O)c1[nH]c2c(c1Cl)CCCc1ccccc1-2 [Compound 1, (S)-3-Chloro-N-(1-ethyl-2-pyrrolidinylmethyl)-5,6-dihydro-4H-benzo[6,7]cyclohepta[1,2-b]pyrrol-2-carboxamide]
[1]
  inhibition at 10 µM: 79.7%
[2]
  growth inhibition (GI%) and cytotoxicity (negative values): −21.01%
[3]
  growth inhibition (GI%) and cytotoxicity (negative values): −68.50%
[4]
  inhibition at 10 µM: 87.2%
[5]
  inhibition at 10 µM: 83.8%
[6]
  growth inhibition (GI%) and cytotoxicity (negative values): −30.78%
[7]
  growth inhibition (GI%) and cytotoxicity (negative values): −85.77%
[8]
  growth inhibition (GI%) and cytotoxicity (negative values): −88.03%
[9]
  inhibition at 10 µM: 68.8%
[10]
  inhibition at 10 µM: 98.6%
[11]
  growth inhibition (GI%) and cytotoxicity (negative values): −32.25%
[12]
  growth inhibition (GI%) and cytotoxicity (negative values): −27.03%
[13]
  inhibition at 10 µM: < 60%
[14]
  inhibition at 10 µM: 85.8%
[15]
  growth inhibition (GI%) and cytotoxicity (negative values): −90.67%
[16]
  inhibition at 10 µM: < 60%
[17]
  growth inhibition (GI%) and cytotoxicity (negative values): −38.55%
[18]
  GI50: 2.7 µM
[19]
  GI50: 3.02 µM
[20]
  CC50: 1.75 µM
[21]; Homo sapiens, UACC-257, read-out: Growth inhibition 50 (GI50)
  GI50: 1.88 µM
[21]; Homo sapiens, UACC-257, read-out: LC50 (molar concentration leading to 50% net cell death)
  CC50: 8.51 µM
[21]; UACC-257
  TGI (molar concentration giving total growth inhibition): 3.98 µM
[22]
  GI50: 2.68 µM
[23]
  GI50: 1.8 µM
[24]
  TGI (molar concentration giving total growth inhibition): 3.39 µM
[24]; Homo sapiens, read-out: Growth inhibition 50 (GI50)
  GI50: 1.76 µM
[24]; Homo sapiens, read-out: LC50 (molar concentration leading to 50% net cell death)
  CC50: 6.31 µM
[25]
  GI50: 5.96 µM
[26]
  GI50: 3.12 µM
[27]
  GI50: 2.31 µM
[28]
  GI50: 1.75 µM
[29]
  CC50 at 48 h: 3.88 µM
[30]
  GI50: 1.86 µM
[31]; Homo sapiens, Malme-3M, read-out: Growth inhibition 50 (GI50)
  GI50: 1.54 µM
[31]; Homo sapiens, Malme-3M, read-out: LC50 (molar concentration leading to 50% net cell death)
  CC50: 5.62 µM
[31]; MALME-3M
  TGI (molar concentration giving total growth inhibition): 2.95 µM
[32]
  EC50: 9.61 µM
[33]; Homo sapiens, SK-MEL-2, read-out: Growth inhibition 50 (GI50)
  GI50: 9.38 µM
[33]; Homo sapiens, SK-MEL-2, read-out: LC50 (molar concentration leading to 50% net cell death)
  CC50: 46.8 µM
[33]; SK-MEL-2
  TGI (molar concentration giving total growth inhibition): 21.34 µM
[34]
  IAV/MDCK SI: 0.10

From paper PMC12566046, “Arylpiperazinyl-Benzocycloheptapyrrole-Carboxamides Endowed with Dual Anticancer and Antiviral Activities” (Molecules, 2025)
